Laboratory results published in patent publication US20120035187A1 (priority 2009, published 2012).
Like-named read-outs stand apart in the source and are kept apart here. Marks after values point to notes of the source that are not given here.

Legend:
PC12-HS cells [1] = assay: Apoptosis induced by amyloid β fragment, Hoechst 33258 staining; type: cell-based, rat; settings: 50 μM amyloid β fragment, NK-4 200 ng/ml
Experimental: A plurality of peptide fragments (called “AMYLOID β FRAGMENT” commercialized by AnaSpec, Inc., CA, USA, each peptide having the amino acid sequence of SEQ ID NO:1), which have an amino acid sequence positioning from 25th to 35th from the N-terminus of amyloid R peptide with human origin and have been recognized as a main factor of neurocyte death in Alzheimer's disease, were diluted with phosphate buffered saline (PBS) to give a concentration of 2 mM, and used after being aged at 37° C. for six hours to coagulate them to increase their cytotoxicity before use. […] Viability (%) of cells in each well was determined and shown in Table 1 by calculating a relative value when the fluorescent intensity of the control was regarded as 100%. […] Thereafter, the cells were stained with […] Hoechst 33258 dye commercialized by SIGMA Corporation, Tokyo, Japan, for five min, observed at a magnitude corresponding to a visual filed containing about 100 cells under a phase contrast microscope and a fluorescent microscope, and counted. The occupied percentage (%) of cells with apoptosis against the total cells in one visual field was calculated and the data was also shown in Table 1. […]

[2] = tested on: hamsters with cerebellar ataxia; assay: Concentration of glutamic acid in cerebrospinal fluid (CSF); type: in vivo, hamster; settings: 10-weeks of age
Text: (§1) Since NK-4 was confirmed to have a neurodegenerative inhibitory action in Experiment 1, hamsters with cerebellar ataxia (cerebellar ataxia is called “cerebellar A” and hamsters with cerebellar ataxia are called “hamsters with cerebellar A”, hereinafter) as a suitable model for human neurodegenerative diseases (e.g., spinal cerebellar degeneration) were subjected to examine the influence of NK-4 administration on their behaviors and brain tissues. Twenty-five hamsters with natural mutation (Nna1 inhibition), which are known to lose Purkinje's cells after three-weeks of age and then induce a spontaneous onset of kinetic motor ataxia after seven-weeks of age (see Akita K. et al., “J. Neurogenetics”, Vol. 21, pp. 19-29, 2007), had been fed at Hayashibara Biochemical Laboratories., Inc., Okayama, Japan, were randomly allocated to the test groups 1 to 5, five heads in each group, as shown in Table 2. Prior to the onset of cerebellar A (at three-weeks of age), PBS was started to administer to the hamsters in the test group 1 at a dose of 10 ml/kg/day. Prior to the onset of cerebellar A (at three-weeks of age), NK-4 was started to be administered to the hamsters in the test groups 2 to 4 at a daily dose of 20 μg/kg, 100 μg/kg or 500 μg/kg. “IGF-1, human, a product name of insulin-like growth factor, commercialized by Assaypro LLC, MO, USA. These administered ingredients were intraperitoneally administered daily to hamsters once a day up to 10-weeks of age. The degree of symptom of cerebellar A and the improvement effect on the symptom by NK-4 were evaluated with an index of improvement in motor coordination of hamsters by conducting once a week the later described rotarod test and the slant tolerance test. At the age of 10-weeks, the hamsters were subjected to counting the falling down frequency and extracted their brains, which were then histologically evaluated. In parallel, the concentration of glutamic acid in the bloods and cerebrospinal fluids (CSF) of the hamsters was assayed. As a test group 6, five normal hamsters, with the same age as the hamsters with cerebellar A used in the test groups 1 to 5, were provided and tested similarly as the hamsters with cerebellar A in such a manner of intraperitoneally administering PBS to them at a dose of 10 ml/kg/day once a day up to 10-weeks of age.
The content of glutamic acid, which is used for synthesizing gamma-amino butyric acid (GABA) as a main excitatory neurotransmitter and inhibitory neurotransmitter that regulate higher-order functions such as memory/learning in mammalian central nervous system, was assayed. In harvesting the brains from the above hamsters, they were blooded from their postcavas, followed by collecting CSF for use in the later described assay for glutamic acid concentration. […]

[3] = Body weight of hamsters with cerebellar ataxia during administration; type: in vivo, hamster; settings: compared between groups administered with PBS, NK-4 and IGF-1
[4] = tested on: hamsters with cerebellar ataxia; assay: Histological evaluation of cerebellum of hamsters with cerebellar ataxia; type: in vivo, hamster; settings: 10-weeks of age; for Cerebellar volume (mm^3) / Number of Purkinje cells (cells) / Number of granular cells (cells/20000 μm^2): cerebellar ataxia hamsters; for Number of subject (head) with apparent demyelination in cerebellar white matter: five heads per group
Text: as §1
Hamsters, 10-weeks of age, after completion of test on coordinated movement such as a confirmation of falling down frequency were intraperitoneally received 50 mg/kg pentobarbital, bled from their postcavas to let them die, and extracted their cerebra and cerebella, followed by fixing them with a 10% by volume of formalin solution. The resulting cerebra and cerebella were photographed with a digital camera apart from a prescribed high position and measured diameters in sagittal and horizontal directions for each photograph. The volumes of cerebra and cerebella were respectively determined by calculating with the formula, (length of sagittal direction)^2×(length of horizontal direction)×0.5; and the data from five heads in each group were averaged. The hamsters with cerebella A used in this experiment are known to reduce cell density of Purkinje's cells and granular cells. Cerebellar slices, which had been cut out in sagittal direction, were stained with hematoxylin-eosin stain, and microscopically observed to count the total number of Purkinje's cells within a Purkinje's cell layer ([…] I to X) and the number of granular cells per unit area, and to confirm subjects in which demyelination was observed within their cerebellar white matters. The results are in Table 5 in parallel.

PC12-HS cells [5] = type: cell-based, rat
APP Tg mouse = assay: Water maze test, APP transgenic mouse; type: in vivo; settings: for Water maze test 1st day / Water maze test 2nd day / Water maze test 3rd day / Water maze test 4th day: time required for arriving the platform

CCN1C=CC(=CC=C(C=Cc2cc[n+](CC)c3ccccc23)c2cc[n+](CC)c3ccccc23)c2ccccc21.[I-].[I-] [NK-4]
Percentage of appoptosis-induced cells (%) Amyloid β fragment (PC12-HS cells [1]): 13 ** %
Concentration of glutamic acid in cerebrospinal fluid ([2]; 20 μg/kg body weight): 7.2 ± 0.8 µM
Concentration of glutamic acid in cerebrospinal fluid ([2]; 100 μg/kg body weight): 8.7 ± 2.6 µM
Concentration of glutamic acid in cerebrospinal fluid ([2]; 500 μg/kg body weight): 9.5 ± 2.9 µM
body weight of hamsters with cerebellar A, weighed once every week up to 10-weeks of age [3]: no significant difference
Cerebellar volume (mm^3) ([4]; 20 μg/kg body weight): 76.0 ± 8.2* mm^3
Number of Purkinje cells (cells) ([4]; 20 μg/kg body weight): 187 ± 37 cells
Number of granular cells (cells/20000 μm^2) ([4]; 20 μg/kg body weight): 408 ± 8 cells/20000 μm^2
Cerebellar volume (mm^3) ([4]; 100 μg/kg body weight): 77.0 ± 2.8* mm^3
Number of Purkinje cells (cells) ([4]; 100 μg/kg body weight): 252 ± 29 cells
Number of granular cells (cells/20000 μm^2) ([4]; 100 μg/kg body weight): 419 ± 6 cells/20000 μm^2
Cerebellar volume (mm^3) ([4]; 500 μg/kg body weight): 80.5 ± 10.8* mm^3
Number of Purkinje cells (cells) ([4]; 500 μg/kg body weight): 231 ± 41 cells
Number of granular cells (cells/20000 μm^2) ([4]; 500 μg/kg body weight): 436 ± 7 cells/20000 μm^2
Number of subject (head) with apparent demyelination in cerebellar white matter ([4]; 20 μg/kg body weight): 4 head
Number of subject (head) with apparent demyelination in cerebellar white matter ([4]; 100 μg/kg body weight): 1 head
Number of subject (head) with apparent demyelination in cerebellar white matter ([4]; 500 μg/kg body weight): 0 head
Survibal percentage of cells when admixed with cytotoxic factor (%) Hydrogen peroxide (PC12-HS cells [5]; NK-4 50 ng/ml): 50%
Survibal percentage of cells when admixed with cytotoxic factor (%) Hydrogen peroxide (PC12-HS cells [5]; NK-4 500 ng/ml): 50%
Survibal percentage of cells when admixed with cytotoxic factor (%) Hydrogen peroxide (PC12-HS cells [5]; NK-4 5000 ng/ml): 70 ** %
Survibal percentage of cells when admixed with cytotoxic factor (%) Hydrogen peroxide (PC12-HS cells [5]; NK-4 50000 ng/ml): 90 ** %
concentration required for protection action against hydrogen peroxide injury (PC12-HS cells [5]; PC12-HS cells): 5,000 ng/ml
Survibal percentage of cells when admixed with cytotoxic factor (%) Hydrogen peroxide (PC12-HS cells [5]; PC12-HS cells, 200 μM hydrogen peroxide, 2 hours, NK-4 5 ng/ml): 51%
Water maze test 1st day (APP Tg mouse; dose 100 μg/kg body weight): 101 ± 38
Water maze test 2nd day (APP Tg mouse; dose 100 μg/kg body weight): 73 ± 13
Water maze test 3rd day (APP Tg mouse; dose 100 μg/kg body weight): 59 ± 10
Water maze test 4th day (APP Tg mouse; dose 100 μg/kg body weight): 34 ± 10
Water maze test 1st day (APP Tg mouse; dose 500 μg/kg body weight): 116 ± 3
Water maze test 2nd day (APP Tg mouse; dose 500 μg/kg body weight): 63 ± 12
Water maze test 3rd day (APP Tg mouse; dose 500 μg/kg body weight): 40 ± 7
Water maze test 4th day (APP Tg mouse; dose 500 μg/kg body weight): 27 ± 7
water maze test (in words) (APP Tg mouse; i.p. five times a week for 12 weeks): improved the dementia
